Bounds are passed on as bounds.

T1 sequence (O00311 whole entry): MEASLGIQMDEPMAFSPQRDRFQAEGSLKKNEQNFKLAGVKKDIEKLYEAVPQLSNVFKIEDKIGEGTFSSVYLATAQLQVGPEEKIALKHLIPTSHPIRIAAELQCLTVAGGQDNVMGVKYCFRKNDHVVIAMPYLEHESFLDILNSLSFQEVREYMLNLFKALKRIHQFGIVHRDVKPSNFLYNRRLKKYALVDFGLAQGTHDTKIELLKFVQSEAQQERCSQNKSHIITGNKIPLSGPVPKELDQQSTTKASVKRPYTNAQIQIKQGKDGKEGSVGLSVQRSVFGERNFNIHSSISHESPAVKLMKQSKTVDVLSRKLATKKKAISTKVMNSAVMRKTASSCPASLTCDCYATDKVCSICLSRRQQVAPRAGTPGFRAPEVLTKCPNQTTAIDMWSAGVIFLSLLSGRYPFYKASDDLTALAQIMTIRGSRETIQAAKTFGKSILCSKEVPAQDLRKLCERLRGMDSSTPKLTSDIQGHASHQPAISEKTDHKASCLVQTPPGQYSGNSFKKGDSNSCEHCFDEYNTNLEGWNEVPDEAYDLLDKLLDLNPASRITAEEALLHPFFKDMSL
T1 sequence (Q9UBU7 whole entry partner): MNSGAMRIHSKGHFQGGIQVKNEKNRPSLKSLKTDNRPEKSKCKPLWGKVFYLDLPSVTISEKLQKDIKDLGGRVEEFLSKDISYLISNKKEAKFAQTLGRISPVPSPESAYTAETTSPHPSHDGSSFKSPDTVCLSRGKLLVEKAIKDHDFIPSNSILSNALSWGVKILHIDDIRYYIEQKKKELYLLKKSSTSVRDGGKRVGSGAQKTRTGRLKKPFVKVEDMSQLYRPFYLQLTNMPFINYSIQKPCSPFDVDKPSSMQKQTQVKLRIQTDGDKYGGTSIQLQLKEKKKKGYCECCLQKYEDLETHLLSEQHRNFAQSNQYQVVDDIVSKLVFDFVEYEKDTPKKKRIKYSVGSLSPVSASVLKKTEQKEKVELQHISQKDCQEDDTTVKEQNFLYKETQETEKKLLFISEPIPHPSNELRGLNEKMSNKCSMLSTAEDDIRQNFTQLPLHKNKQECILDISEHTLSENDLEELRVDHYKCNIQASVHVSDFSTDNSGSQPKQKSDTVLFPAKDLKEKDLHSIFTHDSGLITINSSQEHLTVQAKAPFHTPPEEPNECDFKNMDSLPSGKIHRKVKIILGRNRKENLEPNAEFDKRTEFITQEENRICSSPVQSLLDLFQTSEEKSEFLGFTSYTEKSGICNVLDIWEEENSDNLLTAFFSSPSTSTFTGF

This test addresses T1, Cdc7 (BEV coexpressed huCDC7/DBF4) (Homo sapiens, UniProt O00311).
T1 construct: made in house; host or cells: BEV (baculovirus expression vector) co-expression; insect cells are implied but no cell line is named
Description: Cdc7 enzyme inhibition assay ([33P]ATP, biotinylated peptide substrate, FlashPlate). It counts as biochemical. Particulars: Table 3; enzyme inhibition data (Ki). The procedure:
Cdc7 (BEV coexpressed huCDC7/DBF4) is prepared internally. Cdc7 assays are conducted as follows with final concentrations as listed. […] Reactions are quenched after 1 hr by the addition of 90 μL stop buffer (50 mM EDTA, 2M NaCl). […] (Ki) for exemplary compounds.
Consider `NCCOCCNc1nc(Cl)cc(-c2c[nH]c3ncccc23)n1` [Example 475, N-[2-(2-aminoethoxy)ethyl]-4-chloro-6-(1H-pyrrolo[2,3-b]pyridin-3-yl)pyrimidin-2-amine], for which the inhibitory constant (Ki) is less than 10 nM.

Turning to `Clc1cc(-c2c[nH]c3ncccc23)nc(N[C@H]2CC[C@H](NC3CCCC3)CC2)n1` [Example 477, trans-N-[4-chloro-6-(1H-pyrrolo[2,3-b]pyridin-3-yl)pyrimidin-2-yl]-N′-cyclopentylcyclohexane-1,4-diamine], the Ki is less than 10 nM.

In turn, `O=C(CNC1CCCC1)N[C@H]1CC[C@H](Nc2nc(Cl)cc(-c3c[nH]c4ncccc34)n2)CC1` [Example 478, N-(trans-4-{[4-chloro-6-(1H-pyrrolo[2,3-b]pyridin-3-yl)pyrimidin-2-yl]amino}cyclohexyl)-N~2~-cyclopentylglycinamide] had a Ki of less than 10 nM. For the molecule `CCCS(=O)(=O)N[C@H]1CC[C@H](Nc2nc(Cl)cc(-c3c[nH]c4ncccc34)n2)CC1` [Example 479, N-(trans-4-{[4-chloro-6-(1H-pyrrolo[2,3-b]pyridin-3-yl)pyrimidin-2-yl]amino}cyclohexyl)propane-1-sulfonamide], the Ki was less than 10 nM. The result for `CC(=O)N[C@H]1CC[C@H](Oc2nc(Cl)cc(-c3c[nH]c4ncccc34)n2)CC1` [Example 480, N-(trans-4-{[4-chloro-6-(1H-pyrrolo[2,3-b]pyridin-3-yl)pyrimidin-2-yl]oxy}cyclohexyl)acetamide] reads 10 to 100 nM; that for `O=S(=O)(N[C@H]1CC[C@H](Nc2nc(Cl)cc(-c3c[nH]c4ncccc34)n2)CC1)c1ccsc1` [Example 481, N-(trans-4-{[4-chloro-6-(1H-pyrrolo[2,3-b]pyridin-3-yl)pyrimidin-2-yl]amino}cyclohexyl)thiophene-3-sulfonamide], less than 10 nM.

`O=S(=O)(N[C@H]1CC[C@H](Nc2nc(Cl)cc(-c3c[nH]c4ncccc34)n2)CC1)c1cccs1` [Example 482, N-(trans-4-{[4-chloro-6-(1H-pyrrolo[2,3-b]pyridin-3-yl)pyrimidin-2-yl]amino}cyclohexyl)thiophene-2-sulfonamide] registered a Ki of less than 10 nM. To “N-(3-{[6-chloro-4-(1H-pyrrolo[2,3-b]pyridin-3-yl)pyridin-2-yl]amino}cyclohexyl)-2-(dimethylamino)ethanesulfonamide [Example 154]” belongs less than 10 nM. The result for “N-{2-[(3-{[6-chloro-4-(1H-pyrrolo[2,3-b]pyridin-3-yl)pyridin-2-yl]amino}cyclohexyl)sulfamoyl]ethyl}benzamide [Example 169]” reads less than 10 nM; that for “{4-[(4-{[6-chloro-4-(1H-pyrrolo[2,3-b]pyridin-3-yl)pyridin-2-yl]amino}cyclohexyl)amino]piperidin-1-yl}(phenyl)methanone [Example 177]”, less than 10 nM.

These data come from patent publication US8435980B2 (AbbVie Inc., priority 2009, dated 2013).
